Results taken from ChEMBL document CHEMBL1201862, “PubChem BioAssay data set” (2004).
The source made the active and inactive calls.

How the values were obtained:
[1] = biological target: T1, Corticotropin-releasing factor receptor 2/Corticotropin-releasing factor-binding protein (Homo sapiens, UniProt P24387+Q13324); test: Dose Response confirmation of uHTS hits for small molecule antagonists of the CRF-binding protein and CRF-R2 receptor complex.; format: functional; details: read-out: IC50_Mean
T1 sequence (Q13324 whole entry): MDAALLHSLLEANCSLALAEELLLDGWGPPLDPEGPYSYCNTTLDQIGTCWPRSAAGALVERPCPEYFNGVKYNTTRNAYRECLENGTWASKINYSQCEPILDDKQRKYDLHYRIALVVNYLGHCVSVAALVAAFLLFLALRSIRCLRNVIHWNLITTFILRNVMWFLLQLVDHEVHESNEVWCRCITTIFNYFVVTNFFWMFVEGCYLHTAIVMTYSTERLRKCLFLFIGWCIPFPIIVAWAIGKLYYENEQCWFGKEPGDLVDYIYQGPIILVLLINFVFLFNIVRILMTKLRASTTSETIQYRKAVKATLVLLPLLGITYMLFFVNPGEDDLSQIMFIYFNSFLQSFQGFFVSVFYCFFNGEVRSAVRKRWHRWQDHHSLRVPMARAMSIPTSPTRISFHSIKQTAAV
T1 sequence (P24387 whole entry): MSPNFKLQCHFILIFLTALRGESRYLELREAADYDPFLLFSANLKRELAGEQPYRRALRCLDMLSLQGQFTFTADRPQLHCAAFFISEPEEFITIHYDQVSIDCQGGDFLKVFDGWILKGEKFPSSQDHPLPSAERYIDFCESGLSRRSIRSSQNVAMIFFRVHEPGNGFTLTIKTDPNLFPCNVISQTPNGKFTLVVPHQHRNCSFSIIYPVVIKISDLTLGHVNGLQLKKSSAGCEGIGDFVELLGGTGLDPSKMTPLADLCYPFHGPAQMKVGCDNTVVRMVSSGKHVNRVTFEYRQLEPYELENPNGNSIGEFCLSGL

[2] = THP-1 cell cytotoxicity, dose response, cytotoxicity control for Vif-APOBEC3G degradation inhibitor project, THP-1 cells (AID 1117359); format: functional; details: Human immunodeficiency virus 1, THP-1
[3] = biological target: T1, Corticotropin-releasing factor receptor 2/Corticotropin-releasing factor-binding protein; test: activators of CRF receptor 2 with binding protein – uHTS hits, confirmation (AID 602473); format: functional; details: read-out: EC50_Mean
[4] = A cytotoxicity screen of small molecule inhibitors of the PhoP region in Salmonella typhi identified in the primary screen. [Related pubchem assays: 1850, 1864, 1985 ]; format: functional
[5] = biological target: T2, Mannose-6-phosphate isomerase (Homo sapiens, UniProt P34949); test: human PMI inhibitors, high substrate, primary screen, biochemical, fluorescence intensity, high mannose 6-phosphate (AID 1220)
T2 sequence (P34949 whole entry): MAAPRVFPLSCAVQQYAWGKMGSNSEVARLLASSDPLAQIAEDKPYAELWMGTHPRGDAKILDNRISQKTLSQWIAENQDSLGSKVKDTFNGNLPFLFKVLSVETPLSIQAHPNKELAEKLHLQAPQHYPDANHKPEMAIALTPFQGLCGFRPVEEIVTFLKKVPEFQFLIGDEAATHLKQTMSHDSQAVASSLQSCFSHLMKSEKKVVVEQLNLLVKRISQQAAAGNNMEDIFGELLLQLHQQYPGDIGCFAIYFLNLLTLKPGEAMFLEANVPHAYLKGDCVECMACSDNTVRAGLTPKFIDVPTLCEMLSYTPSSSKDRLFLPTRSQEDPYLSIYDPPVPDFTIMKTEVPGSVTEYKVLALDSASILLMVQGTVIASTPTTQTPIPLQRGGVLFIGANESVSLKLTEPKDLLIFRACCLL

[6] = biological target: Induced myeloid leukemia cell differentiation protein Mcl-1 (Homo sapiens, UniProt Q07820); format: functional
[7] = biological target: Mitogen-activated protein kinase 10 (Homo sapiens, UniProt P53779); test: Dose response biochemical screening assay for inhibitors of c-Jun N-Terminal Kinase 3 (JNK3). [Related pubchem assays: 746 ]
[8] = Luminescence Cell-Based Dose Response to Identify Activators of 5'UTR Stem-Loop Driven Prion Protein mRNA Translation in H4-C Neuroglioblastoma Cells. [Related pubchem assays: 1829 (Project Summary), 1814 (Primary HTS)]; format: functional
[9] = Luminescence Cell-Based Dose Confirmation to Identify Activators of 5'UTR Stem-Loop Driven Alpha-Synuclein mRNA Translation in H4 Neuroglioblastoma Cells. [Related pubchem assays: 1829 (Project Summary), 1814 (Primary HTS)]; format: functional
H4 = test: Luminescence Cell-Based Dose Response HTS to Identify Activators of 5'UTR Stem-Loop Driven Prion Protein mRNA Translation in H4 Neuroglioblastoma Cells. [Related pubchem assays: 1829 (Project Summary), 1814 (Primary HTS)]; format: functional; details: Homo sapiens
[10] = Luminescence Cell-Based Dose Confirmation HTS to Identify Activators of 5'UTR Stem-Loop Driven Alpha-Synuclein mRNA Translation in H4 Neuroglioblastoma Cells. [Related pubchem assays: 1829 (Project Summary), 1814 (Primary HTS)]; format: functional
[11] = Luminescence Cell-Based Dose Response to Identify Activators of Luciferase Translation or Activity in H4-C Neuroglioblastoma Cells. [Related pubchem assays: 1829 (Project Summary), 1814 (Primary HTS)]; format: functional
[12] = biological target: T3, Carboxy-terminal domain RNA polymerase II polypeptide A small phosphatase 1 (Homo sapiens, UniProt Q9GZU7); test: inhibitors of CTDSP1, concentration-response testing, biochemical assay, absorbance-based, actives from ultra-high-throughput screening (AID 540297); format: functional
T3 sequence (Q9GZU7 whole entry): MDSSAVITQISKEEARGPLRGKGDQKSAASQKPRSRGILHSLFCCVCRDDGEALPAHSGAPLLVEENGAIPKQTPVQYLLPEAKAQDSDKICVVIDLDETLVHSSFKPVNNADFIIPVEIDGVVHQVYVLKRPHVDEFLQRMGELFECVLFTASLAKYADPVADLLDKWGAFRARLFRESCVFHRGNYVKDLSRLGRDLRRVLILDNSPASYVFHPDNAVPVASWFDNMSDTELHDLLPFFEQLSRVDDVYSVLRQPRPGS

[13] = Luminescence Cell-Based Dose Response HTS to Identify Activators of Luciferase Translation or Activity in H4 […] Cells. [Related pubchem assays: 1829 (Project Summary), 1814 (Primary HTS)]; format: functional
[14] = biological target: T4, Oxysterols receptor LXR-beta (Homo sapiens, UniProt P55055); format: functional, cell-based;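 further: agonist activity at LXR measured by a cell-based luminescence readout across a dose range, run as a counterscreen for daf-12 agonists; HEK293 cells with Gal4-LXR fusion and GAL4-driven luciferase reporter; potency for activation of Gal4-LXR reporter so compounds are agonists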
T4 sequence (P55055 whole entry): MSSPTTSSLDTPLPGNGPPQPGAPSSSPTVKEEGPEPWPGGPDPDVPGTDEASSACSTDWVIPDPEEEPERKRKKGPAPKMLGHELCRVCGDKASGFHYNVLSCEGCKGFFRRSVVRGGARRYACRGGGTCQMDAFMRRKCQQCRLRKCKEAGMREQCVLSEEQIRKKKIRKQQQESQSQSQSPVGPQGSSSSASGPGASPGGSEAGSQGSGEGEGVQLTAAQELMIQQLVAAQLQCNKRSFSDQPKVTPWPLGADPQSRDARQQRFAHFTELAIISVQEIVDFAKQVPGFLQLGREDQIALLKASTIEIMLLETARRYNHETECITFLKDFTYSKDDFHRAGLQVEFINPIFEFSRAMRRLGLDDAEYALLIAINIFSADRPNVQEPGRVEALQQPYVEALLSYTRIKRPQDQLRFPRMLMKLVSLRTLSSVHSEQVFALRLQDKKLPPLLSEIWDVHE

[15] = biological target: T5, Rac GTPase-activating protein 1 (Homo sapiens, UniProt Q9H0H5); test: MgcRacGAP GTPase-activating activity inhibitors, confirmation, biochemical, ADP Hunter fluorescence, primary and confirmatory (AID 624330); format: functional
T5 sequence (Q9H0H5 whole entry): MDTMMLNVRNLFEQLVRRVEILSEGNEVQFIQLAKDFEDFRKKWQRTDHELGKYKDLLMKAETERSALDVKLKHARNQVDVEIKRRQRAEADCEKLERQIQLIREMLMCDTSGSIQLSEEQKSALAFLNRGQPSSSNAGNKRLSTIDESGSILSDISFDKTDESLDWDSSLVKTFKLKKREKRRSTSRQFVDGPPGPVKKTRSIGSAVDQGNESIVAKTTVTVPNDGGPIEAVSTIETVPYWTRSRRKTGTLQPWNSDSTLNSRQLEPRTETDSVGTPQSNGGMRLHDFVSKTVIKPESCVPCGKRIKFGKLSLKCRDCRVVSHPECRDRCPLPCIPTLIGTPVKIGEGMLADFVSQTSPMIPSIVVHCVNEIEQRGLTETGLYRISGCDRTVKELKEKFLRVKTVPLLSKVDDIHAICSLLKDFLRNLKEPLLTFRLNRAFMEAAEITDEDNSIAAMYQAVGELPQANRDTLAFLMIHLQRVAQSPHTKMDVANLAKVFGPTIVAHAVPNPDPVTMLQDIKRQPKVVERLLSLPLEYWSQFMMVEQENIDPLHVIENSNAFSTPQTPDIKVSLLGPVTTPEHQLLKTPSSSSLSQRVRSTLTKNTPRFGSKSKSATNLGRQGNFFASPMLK

[16] = HeLa cell cytotoxicity, dose response, cytotoxicity control for MgcRacGAP inhibitor project (AID 624300); format: functional

Sequence of Mitogen-activated protein kinase 10 (P53779 whole entry): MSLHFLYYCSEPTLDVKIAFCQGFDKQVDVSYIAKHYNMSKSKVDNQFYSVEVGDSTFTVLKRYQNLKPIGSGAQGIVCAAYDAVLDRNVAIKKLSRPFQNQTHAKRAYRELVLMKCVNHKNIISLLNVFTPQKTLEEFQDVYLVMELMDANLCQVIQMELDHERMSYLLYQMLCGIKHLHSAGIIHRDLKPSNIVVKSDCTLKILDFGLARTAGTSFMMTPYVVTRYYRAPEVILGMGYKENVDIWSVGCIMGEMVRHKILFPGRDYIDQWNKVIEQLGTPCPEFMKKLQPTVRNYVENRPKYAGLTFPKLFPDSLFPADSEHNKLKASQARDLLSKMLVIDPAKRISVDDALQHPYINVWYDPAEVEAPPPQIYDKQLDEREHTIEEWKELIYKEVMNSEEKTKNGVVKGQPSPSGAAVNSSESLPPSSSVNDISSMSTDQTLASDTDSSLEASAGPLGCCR
Sequence of Induced myeloid leukemia cell differentiation protein Mcl-1 (Q07820 whole entry): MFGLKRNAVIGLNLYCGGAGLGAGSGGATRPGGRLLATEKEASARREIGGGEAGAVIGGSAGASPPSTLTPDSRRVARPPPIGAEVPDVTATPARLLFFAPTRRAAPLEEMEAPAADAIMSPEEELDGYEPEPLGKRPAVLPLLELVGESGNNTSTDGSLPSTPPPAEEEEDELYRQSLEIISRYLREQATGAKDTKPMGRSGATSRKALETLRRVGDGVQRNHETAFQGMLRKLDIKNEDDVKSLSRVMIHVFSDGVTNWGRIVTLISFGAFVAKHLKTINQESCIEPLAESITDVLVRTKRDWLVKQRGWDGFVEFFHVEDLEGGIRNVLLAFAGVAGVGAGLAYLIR

Q: With `CN(C)CCNC(=O)C(=O)c1c(-c2ccccc2)cc2ccccn12` as the molecule, how does the IC50 [1] read?
A: > 47.1 µM (inactive)

Q: What about the CC50 [2] of the same molecule?
A: > 40 µM (active)

Q: What about the EC50 [3] of the same molecule?
A: > 53 µM (inactive)

Q: With `CCCCCC(=O)NNC(=S)NC(C)=O` as the molecule, how does the EC50 [4] read?
A: > 50 µM (active)

Q: With `CCOC(=O)c1c(C)oc2c1c(CN1CCN(C(=O)OCC)CC1)c(O)c1ccccc12` as the molecule, how does the IC50 [5] read?
A: > 50 µM (not active)

Q: What about the IC50 [6] of the same molecule?
A: 3.95 µM (active)

Q: Which IC50 [7] does the source give for `CCc1ccc2c(COC(=O)c3n[nH]c4ccccc34)cc(=O)oc2c1` here?
A: > 93.1 µM (not active)

Q: For `COc1ccccc1-c1nn2c(-c3ccco3)nnc2s1`, which EC50 [8] is on record?
A: 1.27 µM (active)

Q: And the EC50 [9]?
A: 0.613 µM (active)

Q: And the EC50 (H4)?
A: 14.9 µM (active)

Q: What about the EC50 [10] of the same molecule?
A: 0.129 µM (active)

Q: And the EC50 [11]?
A: 0.431 µM (active)

Q: What about the IC50 [12] of the same molecule?
A: 12 µM (active)

Q: And the EC50 [13]?
A: < 0.1 µM (active)

Q: For `CCc1ccc(NC2=NCCCS2)cc1`, which EC50 [4] is on record?
A: > 50 µM (active)

Q: For `CNC(=O)c1[nH]cnc1C(=O)Nc1cccc(OC)c1`, which IC50 [7] is on record?
A: 50.1 µM (not active)

Q: For `COc1ccc(C(C)=O)cc1COC(=O)c1cc(C)oc1C`, which IC50 [7] is on record?
A: 61.8 µM (not active)

Q: Which EC50 [14] does the source give for `Cn1c(NCc2c[nH]c3ccccc23)nc2ccccc21` here?
A: > 67.5 µM (inactive)

Q: With `CN(C)c1ccc(NC(=O)c2sc(SCC(=O)Nc3nccs3)nc2N)cc1` as the molecule, how does the IC50 [15] read?
A: 107 µM (active)

Q: And the EC50 [8]?
A: 1.28 µM (active)

Q: And the CC50 [16]?
A: 100 µM (active)

Q: And the EC50 [9]?
A: 0.236 µM (active)

Q: And the EC50 [11]?
A: 0.575 µM (active)

Q: And the EC50 [13]?
A: < 0.1 µM (active)

Q: What does the source list for `COc1cccc(COC(=O)Nc2ccccc2F)c1`?
A: EC50 [8]: 0.301 µM (active); EC50 [9]: 0.456 µM (active); EC50 [11]: 0.344 µM (active); EC50 [13]: < 0.1 µM (inconclusive)

Q: For `O=C(NCc1ccccc1)c1cccc(COc2ccc(Cl)cc2)c1`, which EC50 [8] is on record?
A: > 12 µM (not active)

Q: And the EC50 [9]?
A: 0.261 µM (active)

Q: What about the EC50 (H4) of the same molecule?
A: > 120 µM (not active)

Q: And the EC50 [11]?
A: > 12 µM (not active)

Q: What about the EC50 [13] of the same molecule?
A: < 0.1 µM (active)
